Laboratory results as given in patent US20230312529A1, “PYRIMIDINE SMALL-MOLECULE COMPOUND AND APPLICATION THEREOF” (WENZHOU MEDICAL UNIVERSITY, priority 2021, published 2023).
Where two headings read alike, the source gives them in different places.

Legend:
EGFR L858R = EGFR L858R (Homo sapiens (Human), UniProt P00533, L858R); assay: Kinase selectivity test; format: biochemical; details: 100 nM
Procedure: (§1) The method adopted in the test was Caliper Mobility Shift Assay, which was a detection platform based on the mobility detection technology of microfluidic chip technology. Test steps: 1.25× kinase reaction buffer (62.5 mmol/L HEPES, pH 7.5; 0.001875% Brij-35; 12.5 mmol/L MgCl2; 2.5 mM DTT) and kinase reaction stop solution (100 mmol/L HEPES, pH 7.5; 0.015% Brij-35; 0.2% Coating Reagent #3) were configured. […] Collected data was tested on Caliper to yield that inhibition ratio to kinase activity=(max−conversion)/(max−min)×100. “max” was DMSO control without adding compound, and “min” was low control. When IC50 was determined, each sample was provided with 10 dilutions, each with 2 multiple holes, and repeated for 3 times.
(§2) According to the above-mentioned method for measuring kinase inhibitory activity, the inhibitory activity of the active compounds on other multiple kinases was measured to characterize the kinase selectivity of active inhibitors.

FGFR1 = FGFR1 (Homo sapiens (Human), UniProt P11362); assay: Kinase selectivity test; format: biochemical; details: 100 nM
Procedure: as §1, §2

EGFR = EGFR (Homo sapiens (Human), UniProt P00533); assay: Kinase selectivity test; format: biochemical; details: 100 nM
Procedure: as §1, §2

SRC = SRC (Homo sapiens (Human), UniProt P12931); assay: Kinase selectivity test; format: biochemical; details: 100 nM
Procedure: as §1, §2

FGFR3 = FGFR3 (Homo sapiens (Human), UniProt P22607); assay: Kinase selectivity test; format: biochemical; details: 100 nM
Procedure: as §1, §2

EGFR T790M = EGFR T790M (Homo sapiens (Human), UniProt P00533, T790M); assay: Kinase selectivity test; format: biochemical; details: 100 nM
Procedure: as §1, §2

BTK = BTK (Homo sapiens (Human), UniProt Q06187); assay: Kinase selectivity test; format: biochemical; details: 100 nM
Procedure: as §1, §2

KDR = KDR (Homo sapiens (Human), UniProt P35968); assay: Kinase selectivity test; format: biochemical; details: 100 nM
Procedure: as §1, §2

EGFR L858R/T790M/C797S = EGFR L858R/T790M/C797S (Homo sapiens (Human), UniProt P00533, C797S/L858R/T790M); assay: Kinase selectivity test; format: biochemical; details: 100 nM
Procedure: as §1, §2

FLT1 = FLT1 (Homo sapiens (Human), UniProt P17948); assay: Kinase selectivity test; format: biochemical; details: 100 nM
Procedure: as §1, §2

[1] = test system: PDGFR signaling pathway related proteins in MG63 cells; assay: Western Blot of PDGFR signaling pathway protein phosphorylation; format: cell-based; details: 0.1, 0.2 and 0.4 uM, 48 hours
Procedure: (§3) After pretreating the osteosarcoma cell line with the compound for 48 hours, the culture medium was sucked off, washed with PBS for 3 times, and the total protein was extracted after lysis. A phosphorylation level of the PDGFR signaling pathway related proteins was detected by Western Blot.

[2] = test system: PDGFR signaling pathway related proteins in MNNG cells; assay: as above; format: cell-based; details: 0.1, 0.2 and 0.4 uM, 48 hours
Procedure: as §3

Sequence of EGFR L858R (P00533 25-1210 L858R): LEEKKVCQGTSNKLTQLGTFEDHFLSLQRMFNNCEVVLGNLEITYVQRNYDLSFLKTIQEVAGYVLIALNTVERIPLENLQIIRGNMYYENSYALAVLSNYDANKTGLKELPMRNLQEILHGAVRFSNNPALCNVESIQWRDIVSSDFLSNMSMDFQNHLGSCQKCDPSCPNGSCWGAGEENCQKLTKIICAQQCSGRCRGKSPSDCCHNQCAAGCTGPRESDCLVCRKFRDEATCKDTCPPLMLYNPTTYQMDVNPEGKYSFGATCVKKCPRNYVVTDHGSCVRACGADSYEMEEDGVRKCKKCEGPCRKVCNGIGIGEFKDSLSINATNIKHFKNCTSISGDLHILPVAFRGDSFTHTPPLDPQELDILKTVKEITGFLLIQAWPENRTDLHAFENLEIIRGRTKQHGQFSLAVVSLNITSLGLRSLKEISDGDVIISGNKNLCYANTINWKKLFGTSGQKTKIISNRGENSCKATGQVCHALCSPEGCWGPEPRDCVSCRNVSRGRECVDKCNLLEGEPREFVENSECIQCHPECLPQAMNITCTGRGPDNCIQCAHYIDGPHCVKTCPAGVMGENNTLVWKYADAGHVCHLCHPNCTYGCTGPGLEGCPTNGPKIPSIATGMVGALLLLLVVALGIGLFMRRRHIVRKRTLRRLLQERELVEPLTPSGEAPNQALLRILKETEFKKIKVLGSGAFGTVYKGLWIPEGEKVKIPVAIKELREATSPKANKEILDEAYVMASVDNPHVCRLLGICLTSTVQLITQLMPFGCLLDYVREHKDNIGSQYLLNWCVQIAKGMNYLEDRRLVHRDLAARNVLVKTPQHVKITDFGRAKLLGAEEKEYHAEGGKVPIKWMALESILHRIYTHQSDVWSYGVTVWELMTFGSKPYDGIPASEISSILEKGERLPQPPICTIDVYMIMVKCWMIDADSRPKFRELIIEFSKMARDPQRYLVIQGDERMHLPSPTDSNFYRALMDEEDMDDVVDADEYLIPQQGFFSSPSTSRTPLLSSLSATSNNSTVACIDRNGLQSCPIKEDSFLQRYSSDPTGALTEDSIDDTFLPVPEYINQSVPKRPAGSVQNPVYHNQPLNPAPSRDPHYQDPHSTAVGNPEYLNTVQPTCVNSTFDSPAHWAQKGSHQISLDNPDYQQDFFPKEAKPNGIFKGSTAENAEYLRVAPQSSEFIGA
Sequence of SRC (P12931 whole entry, looked up, species assumed): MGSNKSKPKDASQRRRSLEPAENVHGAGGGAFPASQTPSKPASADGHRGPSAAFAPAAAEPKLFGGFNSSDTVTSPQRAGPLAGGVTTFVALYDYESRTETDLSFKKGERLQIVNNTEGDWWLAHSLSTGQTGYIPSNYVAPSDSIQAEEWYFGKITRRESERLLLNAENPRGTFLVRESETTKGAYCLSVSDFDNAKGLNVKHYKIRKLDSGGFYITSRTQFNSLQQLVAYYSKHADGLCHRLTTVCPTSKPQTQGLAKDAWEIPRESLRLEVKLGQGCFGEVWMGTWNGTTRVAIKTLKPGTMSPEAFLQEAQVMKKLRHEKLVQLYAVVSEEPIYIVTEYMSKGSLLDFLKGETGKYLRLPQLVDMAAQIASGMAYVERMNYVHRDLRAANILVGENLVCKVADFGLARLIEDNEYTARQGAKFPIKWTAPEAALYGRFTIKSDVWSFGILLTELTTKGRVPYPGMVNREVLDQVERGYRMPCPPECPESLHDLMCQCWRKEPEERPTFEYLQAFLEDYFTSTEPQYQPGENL
Sequence of BTK (Q06187 whole entry, species assumed): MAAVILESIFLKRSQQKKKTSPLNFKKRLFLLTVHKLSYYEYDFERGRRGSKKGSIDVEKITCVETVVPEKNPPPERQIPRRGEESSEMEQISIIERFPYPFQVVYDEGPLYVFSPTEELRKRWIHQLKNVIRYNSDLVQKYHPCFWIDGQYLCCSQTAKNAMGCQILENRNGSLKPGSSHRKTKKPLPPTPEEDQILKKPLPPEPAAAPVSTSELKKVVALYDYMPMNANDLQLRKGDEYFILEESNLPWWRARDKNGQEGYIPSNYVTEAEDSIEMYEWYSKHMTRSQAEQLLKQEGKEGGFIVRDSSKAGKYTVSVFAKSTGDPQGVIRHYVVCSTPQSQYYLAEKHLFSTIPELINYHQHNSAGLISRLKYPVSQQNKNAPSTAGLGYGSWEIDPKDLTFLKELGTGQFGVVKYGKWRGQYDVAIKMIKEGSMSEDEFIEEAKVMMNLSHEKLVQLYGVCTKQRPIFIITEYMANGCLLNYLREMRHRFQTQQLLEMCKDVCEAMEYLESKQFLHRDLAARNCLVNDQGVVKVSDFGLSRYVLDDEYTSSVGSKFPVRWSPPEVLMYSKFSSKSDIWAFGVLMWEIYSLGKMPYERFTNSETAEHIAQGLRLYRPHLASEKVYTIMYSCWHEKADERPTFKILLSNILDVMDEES
Sequence of FLT1 (P17948 27-1338, species assumed): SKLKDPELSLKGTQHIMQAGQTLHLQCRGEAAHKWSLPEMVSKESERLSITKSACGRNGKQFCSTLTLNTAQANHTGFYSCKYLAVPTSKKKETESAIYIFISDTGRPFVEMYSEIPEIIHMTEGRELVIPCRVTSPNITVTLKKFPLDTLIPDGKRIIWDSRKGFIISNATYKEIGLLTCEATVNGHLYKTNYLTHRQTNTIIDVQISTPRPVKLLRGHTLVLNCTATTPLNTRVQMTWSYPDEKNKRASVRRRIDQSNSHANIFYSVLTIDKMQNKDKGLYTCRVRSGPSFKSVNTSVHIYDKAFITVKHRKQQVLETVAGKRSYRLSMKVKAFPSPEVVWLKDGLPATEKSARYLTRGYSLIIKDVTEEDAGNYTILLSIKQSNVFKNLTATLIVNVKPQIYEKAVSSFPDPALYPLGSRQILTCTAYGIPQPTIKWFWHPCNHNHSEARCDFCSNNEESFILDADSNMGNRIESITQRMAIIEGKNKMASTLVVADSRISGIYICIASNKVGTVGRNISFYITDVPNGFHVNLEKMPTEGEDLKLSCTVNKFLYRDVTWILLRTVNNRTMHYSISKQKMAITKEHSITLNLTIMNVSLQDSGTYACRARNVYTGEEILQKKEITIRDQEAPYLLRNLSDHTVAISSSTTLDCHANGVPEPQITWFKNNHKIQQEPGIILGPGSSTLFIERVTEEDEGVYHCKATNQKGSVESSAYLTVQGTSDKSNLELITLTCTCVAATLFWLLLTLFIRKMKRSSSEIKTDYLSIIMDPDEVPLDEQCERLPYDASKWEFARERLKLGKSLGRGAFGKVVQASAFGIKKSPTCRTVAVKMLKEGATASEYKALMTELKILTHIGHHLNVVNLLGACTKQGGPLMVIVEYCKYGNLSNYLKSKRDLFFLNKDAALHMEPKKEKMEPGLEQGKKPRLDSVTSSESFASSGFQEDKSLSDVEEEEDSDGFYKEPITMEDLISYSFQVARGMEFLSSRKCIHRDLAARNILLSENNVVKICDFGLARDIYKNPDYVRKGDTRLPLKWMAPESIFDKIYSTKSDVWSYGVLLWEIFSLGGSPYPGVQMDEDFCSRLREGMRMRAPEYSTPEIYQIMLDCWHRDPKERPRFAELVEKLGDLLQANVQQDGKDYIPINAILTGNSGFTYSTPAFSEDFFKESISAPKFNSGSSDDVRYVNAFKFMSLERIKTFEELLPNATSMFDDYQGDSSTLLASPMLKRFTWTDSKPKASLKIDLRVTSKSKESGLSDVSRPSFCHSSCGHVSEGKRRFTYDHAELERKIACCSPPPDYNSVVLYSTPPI
Sequence of EGFR (P00533 25-1210): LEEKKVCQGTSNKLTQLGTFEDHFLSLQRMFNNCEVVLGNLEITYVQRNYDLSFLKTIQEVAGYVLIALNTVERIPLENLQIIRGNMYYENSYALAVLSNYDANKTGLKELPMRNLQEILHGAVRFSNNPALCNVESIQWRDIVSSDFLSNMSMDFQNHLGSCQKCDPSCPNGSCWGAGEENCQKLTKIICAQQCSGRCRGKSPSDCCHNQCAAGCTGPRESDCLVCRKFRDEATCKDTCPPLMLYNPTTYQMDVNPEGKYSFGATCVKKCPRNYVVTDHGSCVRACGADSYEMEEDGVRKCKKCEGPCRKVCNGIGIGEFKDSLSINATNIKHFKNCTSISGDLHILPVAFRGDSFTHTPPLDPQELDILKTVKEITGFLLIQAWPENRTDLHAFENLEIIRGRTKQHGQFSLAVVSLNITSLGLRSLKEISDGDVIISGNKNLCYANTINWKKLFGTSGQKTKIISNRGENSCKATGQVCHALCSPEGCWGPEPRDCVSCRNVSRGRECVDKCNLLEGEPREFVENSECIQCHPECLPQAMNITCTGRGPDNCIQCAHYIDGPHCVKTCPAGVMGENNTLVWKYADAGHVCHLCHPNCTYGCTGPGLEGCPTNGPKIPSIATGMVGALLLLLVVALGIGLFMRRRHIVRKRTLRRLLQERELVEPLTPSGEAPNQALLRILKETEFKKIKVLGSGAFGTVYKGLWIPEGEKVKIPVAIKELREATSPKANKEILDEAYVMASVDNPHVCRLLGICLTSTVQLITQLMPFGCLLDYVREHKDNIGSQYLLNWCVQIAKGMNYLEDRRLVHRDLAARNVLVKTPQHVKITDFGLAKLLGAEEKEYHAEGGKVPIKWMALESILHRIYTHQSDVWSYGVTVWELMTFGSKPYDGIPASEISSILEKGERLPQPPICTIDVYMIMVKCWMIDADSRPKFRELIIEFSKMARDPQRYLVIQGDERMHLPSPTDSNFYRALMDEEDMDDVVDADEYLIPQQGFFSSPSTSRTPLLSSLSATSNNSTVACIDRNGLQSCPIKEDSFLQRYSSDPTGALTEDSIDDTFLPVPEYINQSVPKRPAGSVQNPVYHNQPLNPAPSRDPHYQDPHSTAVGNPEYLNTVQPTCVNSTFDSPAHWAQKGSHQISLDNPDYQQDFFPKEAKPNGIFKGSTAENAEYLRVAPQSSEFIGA

inhibition at 0.1 µM (EGFR L858R; average, read-out: Average % inhibition EGFR L858R): 62.1% | inhibition at 0.1 µM (EGFR L858R; replicate 1, read-out: % inhibition 1 EGFR L858R): 61.7% | inhibition at 0.1 µM (EGFR L858R; replicate 2, read-out: % inhibition 2 EGFR L858R): 62.6% | inhibition at 0.1 µM (FGFR1; average, read-out: Average % inhibition FGFR1): 65.8% | inhibition at 0.1 µM (FGFR1; replicate 1, read-out: % inhibition 1 FGFR1): 65% | inhibition at 0.1 µM (FGFR1; replicate 2, read-out: % inhibition 2 FGFR1): 66.6% | inhibition at 0.1 µM (EGFR; average, read-out: Average % inhibition EGFR): 42.3% | inhibition at 0.1 µM (EGFR; replicate 1, read-out: % inhibition 1 EGFR): 40.9% | inhibition at 0.1 µM (EGFR; replicate 2, read-out: % inhibition 2 EGFR): 43.6% | inhibition at 0.1 µM (SRC; average, read-out: Average % inhibition SRC): 92.2% | inhibition at 0.1 µM (SRC; replicate 1, read-out: % inhibition 1 SRC): 91% | inhibition at 0.1 µM (SRC; replicate 2, read-out: % inhibition 2 SRC): 93.5% | inhibition at 0.1 µM (FGFR3; average, read-out: Average % inhibition FGFR3): 10.9% | inhibition at 0.1 µM (FGFR3; replicate 1, read-out: % inhibition 1 FGFR3): 8.1% | inhibition at 0.1 µM (FGFR3; replicate 2, read-out: % inhibition 2 FGFR3): 13.7% | inhibition at 0.1 µM (EGFR T790M; average, read-out: Average % inhibition EGFR T790M): 56.9% | inhibition at 0.1 µM (EGFR T790M; replicate 1, read-out: % inhibition 1 EGFR T790M): 57% | inhibition at 0.1 µM (EGFR T790M; replicate 2, read-out: % inhibition 2 EGFR T790M): 56.8% | inhibition at 0.1 µM (BTK; average, read-out: Average % inhibition BTK): 50.2% | inhibition at 0.1 µM (BTK; replicate 1, read-out: % inhibition 1 BTK): 49.1% | inhibition at 0.1 µM (BTK; replicate 2, read-out: % inhibition 2 BTK): 51.3% | inhibition at 0.1 µM (KDR; average, read-out: Average % inhibition KDR): 71.4% | inhibition at 0.1 µM (KDR; replicate 1, read-out: % inhibition 1 KDR): 71.5% | inhibition at 0.1 µM (KDR; replicate 2, read-out: % inhibition 2 KDR): 71.3% | inhibition at 0.1 µM (EGFR L858R/T790M/C797S; average, read-out: Average % inhibition EGFR L858R/T790M/C797S): 74.5% | inhibition at 0.1 µM (EGFR L858R/T790M/C797S; replicate 1, read-out: % inhibition 1 EGFR L858R/T790M/C797S): 73.4% | inhibition at 0.1 µM (EGFR L858R/T790M/C797S; replicate 2, read-out: % inhibition 2 EGFR L858R/T790M/C797S): 75.7% | inhibition at 0.1 µM (FLT1; average, read-out: Average % inhibition FLT1): 79.7% | inhibition at 0.1 µM (FLT1; replicate 1, read-out: % inhibition 1 FLT1): 78.7% | inhibition at 0.1 µM (FLT1; replicate 2, read-out: % inhibition 2 FLT1): 80.7%
Structure (SMILES): CCN1CCN(c2ccc(Nc3ncc(C)c(Nc4ccc5cn[nH]c5c4)n3)cc2OC)CC1 [Compound 6i, N^2-(4-(4-ethylpiperazine-1-yl)-3-methoxyphenyl)-N^4-(1H-indazol-6-yl)-5-methylpyrimidine-2,4-diamine]
inhibition of phosphorylation of signaling pathway proteins [1]: strong dose-dependent inhibition | inhibition of phosphorylation of signaling pathway proteins [2]: strong dose-dependent inhibition
